Read-outs that look alike come from different tables or passages of the source.
System: cultured human mast cells (CHMC)
Assay: CHMC low cell density IgE activation: tryptase assay
Type: cell-based
Conditions: low cell density CHMC, IgE activation
Procedure: Inhibition of degranulation was measured at both low and high cell density by quantifying the release of the granule specific factors tryptase, histamine and hexosaminidase. Inhibition of release and/or synthesis of lipid mediators was assessed by measuring the release of leukotriene LTC4 and inhibition of release and/or synthesis of cytokines was monitored by quantifying TNF-α, IL-6 and IL-13. Tryptase and hexosaminidase were quantified using fluorogenic substrates as described in their respective examples. […] The protocols of the various assays are provided below.
Pellet CHMC cells (980 rpm, 10 min) and resuspend in pre-warmed MT. Add 65 ul of cells to each 96-well plate. Depending on the degranulation activity for each particular CHMC donor, load 1000-1500 cells/well. Mix four times followed by a 1 hr incubation at 37° C. […] Stimulate cells by adding 25 ul of 6× anti-IgE solution to the appropriate plates. Add 25 ul MT to un-stimulated control wells. Mix twice following addition of the anti-IgE. Incubate at 37° C. for 30 minutes. […] Spin plates at 1000 rpm for 10 min to pellet cells. Transfer 25 ul of supernatant to a 96-well black bottom plate and add 100 ul of freshly diluted tryptase substrate solution to each well. Incubate plates at room temperature for 30 min.

[1] = Homo sapiens, Mast cell, tryptase release, 8 pt, read-out: LD Tryptase, CHMC, IgE, 8 pt
[2] = Homo sapiens, Mast cell, tryptase release, 3 pt, read-out: LD Tryptase, CHMC, IgE, 3 pt
[3] = tryptase release, 8 pt, read-out: LD Tryptase, CHMC, IgE, 8 pt
[4] = tryptase release, 3 pt, read-out: LD Tryptase, CHMC, IgE, 3 pt

SMILES	IC50 [1]	IC50 [2]	other results
O=C1CSc2ccc(Nc3nc(Nc4cccc(O)c4)ncc3F)cc2N1 [Compound 281]	< 10 µM	< 10 µM	–
CC1(C)C(=O)Nc2cc(Nc3nc(Nc4cccc(O)c4)ncc3F)ccc2S1(=O)=O [Compound 283, racemic-N4-(2,2-Dimethyl-1,1,3-trioxo-4H-benzo[1,4]thiazin-6-yl)-5-fluoro-N2-[3-hydoxyphenyl]-2,4-pyrimidinediamine]	–	–	IC50 [3]: < 10 µM
COc1cc(Nc2ncc(F)c(Nc3ccc4c(c3)NC(=O)CS4)n2)cc(OC)c1OC [Compound 287]	< 10 µM	–	–
O=C1CSc2ccc(Nc3nc(Nc4ccc5[nH]ncc5c4)ncc3F)cc2N1 [Compound 288]	< 10 µM	–	–
COc1ccc(Nc2ncc(F)c(Nc3ccc4c(c3)NC(=O)C(C)(C)S4)n2)cc1Cl [Compound 289]	–	–	IC50 [3]: < 10 µM
CNC(=O)COc1cccc(Nc2ncc(F)c(Nc3ccc4c(c3)NC(=O)C(C)(C)S4)n2)c1 [Compound 294, N4-(2,2-Dimethyl-3-oxo-4H-benzo[1,4]thiazin-6-yl)-5-fluoro-N2-[3-(N-methylamino)carbonylmethyleneoxyphenyl]-2,4-pyrimidinediamine]	–	–	IC50 [4]: < 10 µM; IC50 [3]: < 10 µM
COc1ccc(Nc2ncc(F)c(Nc3ccc4c(c3)NC(=O)C(C)(C)S4)n2)cc1F [Compound 299]	–	–	IC50 [4]: < 10 µM; IC50 [3]: < 10 µM
COc1ccc(Nc2ncc(F)c(Nc3ccc4c(c3)NC(=O)CS4)n2)cc1F [Compound 300, 5-Fluoro-N2-(3-fluoro-4-methoxyphenyl)-N4-(3-oxo-2H,4H-benzo[1,4]thiazin-6-yl)-2,4-pyrimidinediamine]	< 10 µM	< 10 µM	–
COc1cc(Nc2ncc(F)c(Nc3ccc4c(c3)NC(=O)CS4(=O)=O)n2)cc(OC)c1 [Compound 303]	< 10 µM	–	–
COc1ccc(Nc2ncc(F)c(Nc3ccc4c(c3)NC(=O)CS4(=O)=O)n2)cc1Cl [Compound 304]	< 10 µM	–	–
CNC(=O)COc1cccc(Nc2ncc(F)c(Nc3ccc4c(c3)NC(=O)CS4(=O)=O)n2)c1 [Compound 305, 5-Fluoro-N2-[3-(N-methylamino)carbonylmethyleneoxyphenyl]-N4-(1,1,3-trioxo-2H,4H-benzo[1,4]thiazin-6-yl)-2,4-pyrimidinediamine]	–	–	IC50 [3]: < 10 µM
COc1cc(Nc2ncc(F)c(Nc3ccc4c(c3)NC(=O)CS4(=O)=O)n2)cc(OC)c1OC [Compound 306, 5-Fluoro-N2-(3,4,5-triimethoxylphenyl)-N4-(1,1,3-trioxo-2H,4H-benzo[1,4]thiazin-6-yl)-2,4-pyrimidinediamine]	–	–	IC50 [3]: < 10 µM
O=C1CS(=O)(=O)c2ccc(Nc3nc(Nc4ccc5cn[nH]c5c4)ncc3F)cc2N1 [Compound 307]	< 10 µM	–	–
O=C1CS(=O)(=O)c2ccc(Nc3nc(Nc4cccc(O)c4)ncc3F)cc2N1 [Compound 308]	< 10 µM	–	–
COc1ccc(Nc2ncc(F)c(Nc3ccc4c(c3)NC(=O)CS4(=O)=O)n2)cc1F [Compound 309]	< 10 µM	–	–
O=C1CS(=O)(=O)c2ccc(Nc3nc(Nc4ccc5[nH]ncc5c4)ncc3F)cc2N1 [Compound 310]	< 10 µM	–	–
O=C1CSc2ccc(Nc3nc(Cl)ncc3F)cc2N1 [Compound 313, N2-Chloro-5-fluoro-N4-(3-oxo-2H,4H-benzo[1,4]thiazin-6-yl)-4-pyrimidineamine]	–	–	IC50 [4]: < 10 µM
O=C1CS(=O)(=O)c2ccc(Nc3nc(Cl)ncc3F)cc2N1 [Compound 315, N2-Chloro-5-fluoro-N4-(1,1,3-trioxo-2H,4H-benzo[1,4]thiazin-6-yl)-4-pyrimidineamine]	–	–	IC50 [4]: > 10 µM
CC1(C)Sc2ccc(Nc3nc(Cl)ncc3F)cc2NC1=O [Compound 316, N2-Chloro-N4-(2,2,-dimethyl-3-oxo-4H-benzo[1,4]thiazin-6-yl)-5-fluoro-4-pyrimidineamine]	–	–	IC50 [4]: < 10 µM

SMILES	IC50 [1]	IC50 [2]	other results
CC1(C)C(=O)Nc2cc(Nc3nc(Cl)ncc3F)ccc2S1(=O)=O [Compound 318, N2-Chloro-N4-(2,2-dimethyl-1,1,3-trioxo-4H-benzo[1,4]thiazin-6-yl)-5-fluoro-4-pyrimidineamine]	–	–	IC50 [4]: < 10 µM
CC1(C)COc2ccc(Nc3nc(Cl)ncc3F)cc2N1 [Compound 320, N2-Chloro-N4-(3,3-dimethyl-1,4-benzoxazin-6-yl)-5-fluoro-pyrimidineamine]	–	–	IC50 [4]: < 10 µM
COc1cc(Nc2ncc(F)c(Nc3cccc(OC(F)(F)F)c3)n2)cc(OC)c1 [Compound 324]	–	< 10 µM	–
Fc1cnc(Nc2ccc3cc[nH]c3c2)nc1Nc1cccc(OC(F)(F)F)c1 [Compound 326, 5-Fluoro-N2-(indol-6-yl)-N4-(3-trifluoromethoxyphenyl)-2,4-pyrimidinediamine]	< 10 µM	< 10 µM	–
CNC(=O)COc1cccc(Nc2ncc(F)c(Nc3ccc4ccn(C(=O)NC)c4c3)n2)c1 [Compound 327, 5-Fluoro-N4-[1-(N-methylamino)carbonylindol-6-yl]-N2-[3-(N-methylamino)carbonylmethyleneoxyphenyl]-2,4-pyrimidinediamine]	–	–	IC50 [4]: < 10 µM
COc1cc(Nc2ncc(F)c(Nc3cc(C)cc(C)c3)n2)cc(C(F)(F)F)c1 [Compound 329]	–	< 10 µM	–
Cc1cc(C)cc(N(c2cc(C)cc(C(F)(F)F)c2)c2nc(N)ncc2F)c1 [Compound 330]	–	< 10 µM	–
COc1cc(Nc2nc(Nc3cc(C)cc(C)c3)ncc2F)cc(C(F)(F)F)c1 [Compound 331]	–	< 10 µM	–
COc1cc(Nc2ncc(F)c(Nc3cc(OC)cc(C(F)(F)F)c3)n2)cc(OC)c1 [Compound 332, N2-(3,5-Dimethoxyphenyl)-5-fluoro-N4-(3-methoxy-5-trifluoromethylphenyl)-2,4-pyrimidinediamine]	–	< 10 µM	–
COc1cc(Nc2ncc(F)c(Nc3cc(OC)cc(C(F)(F)F)c3)n2)cc(C(F)(F)F)c1 [Compound 333]	–	< 10 µM	–
COc1cc(Nc2nc(Nc3cc(C)cc(C(F)(F)F)c3)ncc2F)cc(C(F)(F)F)c1 [Compound 334]	–	< 10 µM	–
COc1cc(Nc2nc(Nc3cc(OC)c(OC)c(OC)c3)ncc2F)cc(C(F)(F)F)c1 [Compound 335]	< 10 µM	–	–
COc1cc(Nc2nc(Nc3cc(C)c(O)c(Cl)c3)ncc2F)cc(C(F)(F)F)c1 [Compound 336, N2-(3-Chloro-4-hydroxy-5-methylphenyl)-5-fluoro-N4-(3-methoxy-5-trifluoromethylphenyl)-2,4-pyrimidinediamine]	–	< 10 µM	–
COc1cc(Nc2nc(Nc3cc(Cl)cc(Cl)c3)ncc2F)cc(C(F)(F)F)c1 [Compound 337]	–	< 10 µM	–
COc1cc(Nc2nc(Nc3cc(C)c(Cl)c(C)c3)ncc2F)cc(C(F)(F)F)c1 [Compound 339]	–	> 10 µM	–
COc1cc(Nc2ncc(F)c(Nc3cc(OC)cc(OC)c3)n2)cc(OC)c1 [Compound 340]	< 10 µM	< 10 µM	–
Cc1cc(C)cc(Nc2ncc(F)c(Nc3cc(C)cc(C)c3)n2)c1 [Compound 341, N2,N4-Bis (3,5-dimethylphenyl)-5-fluoro-2,4-pyrimidinediamine]	–	–	IC50 (Homo sapiens, Mast cell, tryptase, 3 pt, read-out: LD Tryptase, CHMC, IgE, 3 pt): < 10 µM
CC1(C)Oc2ccc(Nc3nc(Nc4cc(CO)cc(CO)c4)ncc3F)cc2NC1=O [Compound 344, N2-[3,5-Bis (hydoxymethylene)phenyl]-N4-(2,2-dimethyl-3-oxo-4H-benz[1,4]oxazin-6-yl)-5-fluoro-2,4-pyrimidinediamine]	–	–	IC50 (Homo sapiens, Mast cell, tryptase, 8 pt, read-out: LD Tryptase, CHMC, IgE, 8 pt): < 10 µM

Now from value to molecule, other results behind:

IC50 [1]	IC50 [2]	SMILES	other results
< 10 µM	–	COc1ccc(Nc2ncc(F)c(Nc3ccc4c(c3)NC(=O)C(C)S4)n2)cc1Cl (centres unmarked) [Compound 280]	–
< 10 µM	–	COc1cc(Nc2ncc(F)c(Nc3ccc4c(c3)NC(=O)C(C)(C)S4)n2)cc(OC)c1 [Compound 290]	–
< 10 µM	–	Cc1cc(C)cc(Nc2ncc(F)c(Nc3ccc4c(c3)NC(=O)C(C)(C)S4)n2)c1 [Compound 291]	–
< 10 µM	–	COc1cc(Nc2ncc(F)c(Nc3ccc4c(c3)NC(=O)C(C)(C)S4)n2)cc(OC)c1OC [Compound 292]	–
< 10 µM	–	CC1(C)Sc2ccc(Nc3nc(Nc4cccc(O)c4)ncc3F)cc2NC1=O [Compound 293]	–
< 10 µM	< 10 µM	CC1(C)Sc2ccc(Nc3nc(Nc4ccc5cn[nH]c5c4)ncc3F)cc2NC1=O [Compound 295]	–
< 10 µM	< 10 µM	COc1ccc(Nc2ncc(F)c(Nc3ccc4c(c3)NC(=O)C(C)(C)S4(=O)=O)n2)cc1F [Compound 297]	–
< 10 µM	< 10 µM	Cc1cc(C)cc(Nc2ncc(F)c(Nc3ccc4c(c3)NC(=O)CS4)n2)c1 [Compound 301]	–
< 10 µM	–	Cc1cc(C)cc(Nc2ncc(F)c(Nc3ccc4c(c3)NC(=O)CS4(=O)=O)n2)c1 [Compound 302]	–
< 10 µM	< 10 µM	Cn1ncc2ccc(Nc3ncc(F)c(Nc4ccc5c(c4)NC(=O)C(C)(C)S5)n3)cc21 [Compound 311]	–
–	< 10 µM	Cc1cc(C)cc(Nc2ncc(F)c(Nc3cccc(OC(F)(F)F)c3)n2)c1 [Compound 325, N2-(3,5-Dimethylphenyl)-5-fluoro-N4-(3-trifluoromethoxyphenyl)-2,4-pyrimidinediamine]	–
< 10 µM	–	COc1cc(Nc2ncc(F)c(Nc3cc(C)cc(C)c3)n2)cc(OC)c1 [Compound 328]	–

From patent US20220073536A1 (Rigel Pharmaceuticals, Inc., priority 2003, published 2022)
